Tests used:
L929 = assay: Cytotoxicity test (Cyto X cell viability assay kit), L929; type: cell-based; details: Mus musculus
Protocol: (§1) In order to identify whether the Preparation Example 6 according to the present invention is toxic to cells, a cytotoxicity test was conducted at the Korea Research Institute of Chemical Technology using the Cyto X™ cell viability assay kit ([…]).

[1] = system: Tunel positive cells in brain tissue; assay: Apoptosis level in brain tissue by TUNEL assay; type: in vivo, ICR mice
Protocol: (§2) Subsequently, the syringe was allowed to stand for 5 minutes and then removed.
Then, an apoptosis level was checked through TUNEL assay. The TUNEL assay is a method to search for cells that have undergone apoptosis by attaching a fluorescent substance to ends of DNA fragments cleaved due to apoptosis. The extracted brain tissue of the experimental animal is fixed by perfusion with 4% formaldehyde. Then, the brain tissue was embedded in paraffin and sectioned to a thickness of 5 μm. The brain tissue fixed on a slide was subjected to a TUNEL assay kit so that the end portions where DNA having undergone apoptosis had been fragmented are fluorescence-stained, and checked by a fluorescence microscope.

[2] = system: Salmonella typhimurium TA98; assay: Ames reverse mutation test, TA98
Protocol: (§3) For each strain, treatment with a single concentration of 200 μg/plate was performed in triplicate and mutation was checked.

CHO-K1 = assay: Cytotoxicity test (Cyto X cell viability assay kit), CHO-K1; type: cell-based; details: Cricetulus griseus
Protocol: as §1

[3] = system: Salmonella typhimurium TA100
Protocol: as §3

NIH 3T3 = assay: Cytotoxicity test (Cyto X cell viability assay kit), NIH 3T3; type: cell-based; details: Mus musculus, NIH3T3
Protocol: as §1

[4] = system: amyloid-beta peptide1-42 degenerative neurological disease-induced mice; assay: Morris water maze test; type: in vivo, ICR mice
Text: Six-week-old ICR mice (male) were purchased, and then examined for general health for 6 days while subjecting them to quarantine and acclimation under an environment of animal breeding room. Then, healthy individuals were selected and used for the experiment. Identification of each individual was made by marking the number of each individual on the tail using a permanent marker, and identification of a breeding box was made by attaching an individual identification card on which test number, test substance name, test item, date of acquisition, acclimation period, date of grouping, test period, sex/animal number, and person in charge are indicated.
(§4) In order to induce a degenerative neurological disease, the experimental animals of Preparatory Example 1 were anesthetized by inhalation with 2.5% isoflurane. Then, 1 μg of amyloid-beta peptide1-42, a degenerative neurological disease-inducing substance, was administered to the animals at both hippocampal positions (AP: −2.3, L: ±2.0, H: −1.5) using a stereotaxic apparatus. […] For the administration, 1 μl was injected, at a flow rate of 0.2 μl/min, with a […] gas-tight glass syringe (Hamilton, Reno, NV, USA) using a perfusion pump (Pump 22, Harvard Apparatus, South Natick, MA, USA). Subsequently, the syringe was allowed to stand for 5 minutes and then removed.
(§5) Then, a degenerative neurological disease was induced as in Preparation Example 2.
After induction of the degenerative neurological disease, the following test was conducted after a one-day recovery period passed.
A circular pool (diameter: 120 cm, height: 75 cm) was filled with water to a depth of 25±1 cm as in FIG. 4, and a 24 cm platform was prepared by hiding it 1 cm below the water surface. Space cues were installed on the four sides of the wall so that the aminals can identify locations, and skimmed milk powder was dissolved into water so that the animals cannot identify the platform with naked eyes. One day before the experiment, all the experimental animals were allowed to swim freely for 1 minute in a water bath having no platform, so that the animals can adapt to the swimming situation. After that, a test group was allowed to start, in any order, from two of the three quadrants except the quadrant where the platform was placed, and allowed to find the platform for 60 seconds. In a case where an animal finds the platform, the animal was allowed to stay thereon for 20 seconds. […] As soon as end of the position learning time, which is the 20-second staying time, the animal was allowed to start again from any quadrant, and the time and distance to reach the platform were measured. The procedure was performed four times a day, and all procedures were taken with a camera and analyzed with a video tracking system (Panlab, USA). Probe trials were made on the fifth day after the four-day experiment in toal was completed. The test group was allowed to swim freely for 90 seconds without the platform, thereby performing evaluation on whether the test group holds a memory of the platform location. The results are illustrated in FIGS. 5 to 7.

[5] = system: amyloid-beta peptide1-42 degenerative neurological disease-induced mice; assay: Passive avoidance response test; type: in vivo, ICR mice; details: p<0.05 vs beta-amyloid group
Protocol: as §4, §5
Under a situation where a chamber with a bright light and a dark chamber were connected to each other via a small passage, 4 hours before the experiment, the experimental animals were placed in the chamber with a bright light. The experimental animals instinctively enter the dark chamber. However, after 4 hours of fear learning carried out by using an electric shock to give aversive stimulus, in a case where the experimental animals are placed in the chamber with a bright light, the time until the experimental animals enter the dark chamber was measured and quantified. The results are illustrated in FIG. 10.

[6] = system: acetylcholine in brain tissues; assay: Acetylcholine content in brain tissue; type: in vivo, ICR mice
Protocol: as §2
Measurement of acetylcholine in brain tissues was performed based on response of o-acyl derivatives with alkaline hydroxylamine. Specifically, 50 μl of brain tissue was taken and 50 μl of 1% hydroxylamine (Sigma, USA) was added and mixed. […] Finally, 500 μl of FeCl3 (10% in 0.1 N HCl) was added to measure an acetylcholine level (umole/mg protein), and then the absorbance was measured at 530 nm.

## COc1ccc(OC)c(/C=C/C(=O)c2ccc(NS(=O)(=O)c3ccc(Cl)cc3)cc2)c1 [Preparation Example 6, (E)-4-Chloro-N-(4-(3-(2,5-dimethoxyphenyl)acryloyl)phenyl)benzenesulfonamide]
L929
  IC50: > 100 µM
[1]; 1 mg, p<0.05
  number of Tunel positive cells: 88.83±18.98
[1]; 10 mg, p<0.01
  number of Tunel positive cells: 69.5±17.87
[1]; 100 mg, p<0.01
  number of Tunel positive cells: 67.00±19.54
[2]; TA98, 200 μg/plate, with or without S9
  Ames reverse mutation test outcome: negative
[2]; TA98, with S-9, factor versus control
  Reverse mutation [factor] with S-9 mix: [1.5]
[2]; TA98, with S-9, Preparation Example 6 at 200 μg/plate, Benzo(a)pyrene concentration 2
  Reverse mutation/dish (mean ± SD) with S-9 mix: 35 ± 2
[2]; TA98, without S-9, factor versus control
  Reverse mutation [factor] w/o S-9 mix: [1.1]
[2]; TA98, without S-9, Preparation Example 6 at 200 μg/plate, 2-Nitrofluorene concentration 2
  Reverse mutation/dish (mean ± SD) w/o S-9 mix: 20 ± 4
CHO-K1
  IC50: > 100 µM
[3]; TA100, 200 μg/plate, with or without S9
  Ames reverse mutation test outcome: negative
[3]; TA100, with S-9, factor versus control
  Reverse mutation [factor] with S-9 mix: [1.0]
[3]; TA100, with S-9, Preparation Example 6 at 200 μg/plate, Benzo(a)pyrene concentration 2
  Reverse mutation/dish (mean ± SD) with S-9 mix: 117 ± 4
[3]; TA100, without S-9, factor versus control
  Reverse mutation [factor] w/o S-9 mix: [0.9]
[3]; TA100, without S-9, Preparation Example 6 at 200 μg/plate, Sodium azide concentration 1
  Reverse mutation/dish (mean ± SD) w/o S-9 mix: 104 ± 12
NIH 3T3
  IC50: > 100 µM
[4]; 1 mg
  maximum platform escape latency: 136.45 (±26.02) seconds
  minimum time to find the platform: 44.45 (±13.35) seconds
[4]; 1 mg, fourth day, p<0.05
  escape latency, fourth trial (short-term memory): 44.45 ± 13.35 s
[4]; 1 mg, fourth day, p<0.05 vs beta-amyloid group
  escape latency, first trial (long-term memory): 73.58 ± 9.14 s
[4]; 10 mg
  maximum platform escape latency: 128.59 (±23.32) seconds
  minimum time to find the platform: 40.64 (±10.94) seconds
[4]; 10 mg, first day, p<0.05
  escape latency, fourth trial (short-term memory): 76.14 ± 13.27 s
[4]; 10 mg, fourth day, p<0.05
  escape latency, fourth trial (short-term memory): 40.64 ± 10.94 s
[4]; 10 mg, fourth day, p<0.05 vs beta-amyloid group
  escape latency, first trial (long-term memory): 65.22 ± 13.65 s
[4]; 10 mg, second day, p<0.05
  escape latency, fourth trial (short-term memory): 59.87 ± 12.56 s
[4]; 10 mg, second day, p<0.05 vs beta-amyloid group
  escape latency, first trial (long-term memory): 95.05 ± 18.06 s
[4]; 10 mg, third day, p<0.05
  escape latency, fourth trial (short-term memory): 54.07 ± 14.38 s
[4]; 10 mg, third day, p<0.05 vs beta-amyloid group
  escape latency, first trial (long-term memory): 91.66 ± 12.68 s
[4]; 100 mg
  maximum platform escape latency: 125.66 (±19.35) seconds
  minimum time to find the platform: 36.48 (±9.54) seconds
[4]; 100 mg, first day, p<0.05
  escape latency, fourth trial (short-term memory): 73.79 ± 12.15 s
[4]; 100 mg, fourth day, p<0.01
  escape latency, fourth trial (short-term memory): 36.48 ± 9.54 s
[4]; 100 mg, fourth day, p<0.05 vs beta-amyloid group
  escape latency, first trial (long-term memory): 64.7 ± 12.63 s
[4]; 100 mg, second day, p<0.01 vs beta-amyloid group
  escape latency, first trial (long-term memory): 91.66 ± 12.68 s
[4]; 100 mg, second day, p<0.05
  escape latency, fourth trial (short-term memory): 59.62 ± 8.22 s
[4]; 100 mg, third day, p<0.01
  escape latency, fourth trial (short-term memory): 47.74 ± 10.81 s
[4]; 100 mg, third day, p<0.05 vs beta-amyloid group
  escape latency, first trial (long-term memory): 83.41 ± 11.46 s
[5]; 10 mg
  staying time in the chamber with a bright light: 156.87 ± 50.95 s
[5]; 100 mg
  staying time in the chamber with a bright light: 153.48 ± 34.71 s
[6]; 1 mg, p<0.05
  acetylcholine content: 22.31±1.80 μmole/mg protein
[6]; 10 mg, p<0.01
  acetylcholine content: 23.08±1.54 μmole/mg protein
[6]; 100 mg, p<0.01
  acetylcholine content: 22.79±1.45 μmole/mg protein
